Test results as given in patent US20230192653A1, “Novel Therapeutic Methods” (GUANGZHOU MAXINOVEL PHARMACEUTICALS CO., LTD., priority 2020, published 2023).
“And” between values parts separate entries of the source, which are not always exact repeats. Identical values can stand only once. “Also recorded” adds a separate entry of the source.

Legend:
Assay type in all cases: in vivo, human
[1] = test system: Pancreatic Cancers (patient tumor cells in mini-PDX capsules); test: Mini-PDX assay, pancreatic cancers; conditions: Compound 1 12 mg per kg oral once daily 7 days, effective = P ≤ 0.05, per patient sample
Experimental: (§1) A mini patient-derived xenograft (mini-PDX) is used to assess the sensitivity of different tumors to treatment with Compound 1 (MAX-40279). In this experiment, clinical tumor samples from patients are treated in the mini-PDX by oral administration of Compound 1, and FGFR1OP2 expression level in those samples is analyzed.
(§2) Tumor tissue acquisition is approved by the ethics committees of each participating hospital and agreed to by each patient via written informed consent and is carried out according to state and institutional regulations on experimental use of human tissues. The patient samples are corrected if tumors >500 mm^3 in size with a necrotic area <30% are used. […]
(§3) Thereafter, the implanted capsules are removed, and tumor cell proliferation is evaluated using the CellTiter Glo Luminescent Cell Viability Assay kit (G7571, Promega, Madison, Wis., US) as instructed by the manufacturer. Luminescence is measured in terms of relative luminance unit (RLU) using a spectrophotometer (SpectraMax M3, Molecular Devices, Sunnyvale, Calif., US). Tumor cell growth inhibition (TCGI) (%) is calculated using the formula: TCGI %=(1−[mean RLU of the treatment group on day 7-mean RLU on day 0]/[Mean RLU of vehicle group on day 7−Mean RLU on day 0])×100%, Each experiment is done in sextuplicate and mean values are reported. […]

[2] = test system: Liver Cancers (patient tumor cells in mini-PDX capsules); test: Mini-PDX assay, liver cancers; conditions: Compound 1 12 mg per kg oral once daily 7 days, effective = P ≤ 0.05, per patient sample
Experimental: as §1, §2, §3

[3] = test system: Cholangiocarcinoma (patient tumor cells in mini-PDX capsules); test: Mini-PDX assay, cholangiocarcinoma; conditions: Compound 1 12 mg per kg oral once daily 7 days, effective = P ≤ 0.05, per patient sample
Experimental: as §1, §2, §3

[4] = test system: Gastric Cancer (patient tumor cells in mini-PDX capsules); test: Mini-PDX assay, gastric cancer; conditions: Compound 1 12 mg per kg oral once daily 7 days, effective = P ≤ 0.05, per patient sample
Experimental: as §1, §2, §3

[5] = test system: clinical tumor samples from patients; test: Mini-PDX assay, all tumor samples from patients
Experimental: FIG. 1 is the RLU (ATP Enzyme activity) of cells from mini-PDX vehicles. The cancer cells derived from patients were embedded in the mini-PDX vehicles and implanted in the mice for cultivating 7 days. The mice were treated with MAX-40279(12mpk, PO, BID) or not. After 7 days, cells in mini-PDX vehicles were collected and ATP Enzyme activity was used to represent the cell viability.
as §1, with “analyzed. […]” for “analyzed.”
as §3

cancer patients = test: Clinical efficacy of Compound 1 in cancer patients; parameters: key to CT Observation: Stable Disease, or SD, signifies that there has been no significant decrease or increase in the size of target lesions (including tumors), based on the smallest sum lesion diameter (LD); Progressive Disease, or PD, signifies that there has been an increase of at least 20% in the sum of the LD of targeted lesions; conditions: for CT Observation: per patient
Experimental: Stable Disease, or SD, signifies that there has been no significant decrease or increase in the size of target lesions (including tumors), based on the smallest sum lesion diameter (LD). Progressive Disease, or PD, signifies that there has been an increase of at least 20% in the sum of the LD of targeted lesions.
Patients are treated with Compound 1, given orally at the indicated daily dose. […] Although patients were not selected for high expression of FGFR1OP2 and FGFR1, the clinical response appears related to the expression levels of FGFR1OP2 and FGFR1. Squamous tumors seem particularly susceptible, as both patients with squamous tumors are SDs. Two of the three patients with SD are in 100 mg/day group, one of whom has 20% tumor reduction observed at the second and the fourth cycle by CT examination and is still under treatment. Adverse events are mild, so further dose escalation above 120 mg/day can be considered.

COc1cc(F)ccc1-c1c(C)sc2cnc(Nc3cnn(C4CCNCC4)c3)nc12 [Compound 1] was tested, and the “Efficacy (P ≤ 0.05)” value [1] was “Non-effective; also recorded: effective”, the “Efficacy (P ≤ 0.05)” value [2] was “Non-effective; also recorded: effective” and the “Efficacy (P ≤ 0.05)” value [3] was “Non-effective; also recorded: effective”. For the same molecule, the “Efficacy (P ≤ 0.05)” value [4] was “Non-effective; also recorded: effective”, the “share of tumor samples from patients in which Compound 1 is effective” value ([5]; 30 tumor samples, mini-PDX, 13/30) was 43% and the “Tumor cell growth inhibition (TCGI)” value ([5]; FIG. 1, initial screen of 4 samples, 7 days oral administration, compared to placebo) was “effective TCGI”. The “CT Observation” value (cancer patients; 40 mg oral daily dose) was “SD”, the “CT Observation” value (cancer patients; 70 mg oral daily dose) was “PD (Progressive Disease, or PD, signifies that there has been an increase of at least 20% in the sum of the LD of targeted lesions)” and the “tumor reduction by CT examination” value (cancer patients; 100 mg oral daily dose, CRC, observed at second and fourth cycle) was 20%. The “CT Observation” value (cancer patients; 100 mg oral daily dose) was “SD (2×) and PD (Progressive Disease, or PD, signifies that there has been an increase of at least 20% in the sum of the LD of targeted lesions)”, the Adverse events (cancer patients; patients, 40-100 mg oral daily dose) was “mild” and the “stabilizes progression of the cancer (patients with SD)” value (cancer patients; seven patients, 40-100 mg oral daily dose) was “three of the seven patients”.
